Experimental data reported in patent publication US8022043B2, “Ceramide derivatives as modulators of immunity and autoimmunity” (Albert Einstein College of Medicine of Yeshiva University, priority 2004, dated 2011).

Key:
Format in all cases: cell-based
[1] = system: Bulk splenocytes from C57BL/6 mice; test: Cytokine response of splenocyte cultures (IL-4 and IFNγ ELISA); conditions: 500 nM glycolipid, 48 hours; for Cytokine Response IFNγ / Cytokine Response IL-4: culture supernatant ELISA, ND = below the reliable level for detection
Method: The cytokine response reported in Table 1 and FIG. 5C was determined by the following procedure: Bulk splenocytes from C57BL/6 mice were plated at 300,000 per well in 96-well flat-bottom tissue culture plates with ceramide-like glycolipids diluted to a concentration of 500 nM in 200 microliters complete medium. After 48 h at 37° C., 150 microliters of supernatant was removed for cytokine measurements. Supernatant levels of IL-4, and IFNγ were measured by standard enzyme-linked immunosorbent assay (ELISA), using capture and biotinylated detection antibody pairs (clones 11B11/BVD6-24G2-biotin, and R4-6A2/XMG1.2-biotin, respectively, from BD Pharmingen, San Diego, Calif.). […] Standards for IL-4 and IFNγ were from Peprotech (Rocky Hill, N.J.).

[2] = system: Bulk splenocytes from C57BL/6 mice; test: Splenocyte proliferation assay (3H-thymidine incorporation); conditions: concentration giving 50% maximal response in proliferation of splenocyte cultures, 3H-thymidine incorporation
Method: The results were obtained using a splenocyte proliferation assay according to the following procedure: Bulk splenocytes from C57BL/6 mice were plated at 300,000 per well in 96-well flat-bottom tissue culture plates with the indicated ceramide-like glycolipid diluted in complete medium to the concentrations shown. After 48 h at 37° C., the plate wells were pulsed with 20 microliters of medium containing 50 microCi/ml ^3H-thymidine and incubated for a further 18 h. Cell proliferation was estimated by harvesting pulsed cells onto 96-well filtermats and scintillation counting on a 1450 Microbeta Trilux instrument (Wallac/Perkin Elmer, Boston, Mass.).

NK T cells = test: NK T cell activation screens (Example, FIG. 5 and Table 1); conditions: see Example
Excerpt: Using these methods, we produced more than 60 novel amino substituted analogues of KRN7000. These were screened in a functional assay that assessed the ability of the compounds to activate NK T cell hybridomas in the presence of various types of cells expressing CD1d, or in the presence of recombinant CD1d proteins bound to the tissue culture plate surface (FIG. 5).

iNKT cells = test: In vitro cytokine modulation, murine cell assay system; conditions: for IFNγ induction: DB03-3: in some murine strains; for in vitro activity at modulating cytokines: murine cell assay system
Excerpt: The term iNKT cells, as used herein, mean the specific subset of CD1d-dependent T cells that expresses the invariant TCRα chain rearrangement consisting of Vα14-Jα18 in mice, and Vα24-Jα18 in humans. These cells are uniformly reactive to α-galactosylceramides presented by CD1d. These cells are also referred to as “Type 1” NKT cells, and the distinction between the different types of NKT cells and the nomenclature relating to this are summarized in the publication by Godfrey et al., Nat Rev Immunol. 2004 March; 4(3):231-7. Methods for determining cytokine production by iNKT cells in response to CD1d-presented glycolipids for determination of strong or weak agonist activity are described in Yu K O A, Im J S, Molano A, Dutronc Y, Illarionov P A, Forestier C, Fujiwara N, Arias I, Miyake S, Yamamura T, Chang Y-T, Besra G S, Porcelli S A, Modulation of CD1d-restricted NKT cell responses using N-acyl variants of α-galactosylceramides, Proc. Nat. Acad. Sci. (USA), 102:3383-8 (2005), see also Godfrey D I et al., Nat Rev Immunol. 2004 March; 4(3):231-7.

CCCCCCCCCCCCCC[C@@H](O)[C@@H](O)[C@H](CO[C@H]1O[C@H](CO)[C@H](O)[C@H](O)[C@H]1O)NC(=O)Cc1ccc(C)cc1 [YTCO3-51]
IL-4/IFNγ ratio divided by this ratio for DB01-1 (value in parentheses) [1]: 0.2
ratio IL-4/IFNγ [1]: 0.006
Cytokine Response IFNγ [1]: 9.03 ng/mL
Cytokine Response IL-4 [1]: 0.05 ng/mL
EC50 [2]: 0.0638 µM

CCCCCCCCCCCCCC[C@@H](O)[C@@H](O)[C@H](COC1OC(CO)C(O)C(O)C1O)NC(=O)Cc1ccc(OC)cc1 (some centres unmarked) [YTC03-33]
effectiveness of compound (NK T cells): Particularly effective

CCCCCCCCCCCCCC[C@@H](O)[C@@H](O)[C@H](CO[C@H]1O[C@H](CO)[C@H](O)[C@H](O)[C@H]1O)NC(=O)c1ccc(OCCCCCCC)cc1 [YTCO3-53]
IL-4/IFNγ ratio divided by this ratio for DB01-1 (value in parentheses) [1]: 1.2
ratio IL-4/IFNγ [1]: 0.030
Cytokine Response IFNγ [1]: 0.67 ng/mL
Cytokine Response IL-4 [1]: 0.02 ng/mL
EC50 [2]: 0.038 µM

CCCCCCCCCCCCCC[C@@H](O)[C@@H](O)[C@H](CO[C@H]1O[C@H](CO)[C@H](O)[C@H](O)[C@H]1O)NC(=O)C(CC)c1ccccc1 (some centres unmarked) [YTCO3-61]
IL-4/IFNγ ratio divided by this ratio for DB01-1 (value in parentheses) [1]: 0.9
ratio IL-4/IFNγ [1]: 0.023
Cytokine Response IFNγ [1]: 7.50 ng/mL
Cytokine Response IL-4 [1]: 0.17 ng/mL
EC50 [2]: 0.0724 µM

CCCCC/C=C\C/C=C\CCCCCCCC(=O)N[C@@H](COC1OC(CO)C(O)C(O)C1O)[C@H](O)[C@H](O)CCCCCCCCCCCCCC (some centres unmarked) [DB03-10]
IL-2 induction (iNKT cells; in vitro): weak inducers of IL-2
IL-4 induction (iNKT cells; in vitro): strong inducers of IL-4
IFNγ induction (iNKT cells; in vitro): moderate inducers of IFNγ
in vitro activity at modulating cytokines (iNKT cells): show in vitro activity

CCCCCCCCCCCCCCC(O)C(O)C(COC1OC(CO)C(O)C(O)C1O)NC(=O)Cc1ccc2c(c1)OCO2 (centres unmarked) [YTCO3-44]
IL-4/IFNγ ratio divided by this ratio for DB01-1 (value in parentheses) [1]: 3.7
ratio IL-4/IFNγ [1]: 0.097
Cytokine Response IFNγ [1]: 14.19 ng/mL
Cytokine Response IL-4 [1]: 1.38 ng/mL
EC50 [2]: 0.0571 µM

CCCCCCCCCCCCCCC(O)C(O)C(COC1OC(CO)C(O)C(O)C1O)NC(=O)CCCCC (centres unmarked) [YTC03-31]
effectiveness of compound (NK T cells): Particularly effective

CCCCCCCC/C=C\CCCCCCCCCC(=O)N[C@@H](COC1OC(CO)C(O)C(O)C1O)[C@H](O)[C@H](O)CCCCCCCCCCCCCC (some centres unmarked) [DB03-3]
IL-4 induction (iNKT cells; in vitro): good inducer of L-4
IFNγ induction (iNKT cells; in vitro): strong inducer of IFNγ
in vitro activity at modulating cytokines (iNKT cells): show in vitro activity

CCCCCCCCCCCCCC[C@@H](O)[C@@H](O)[C@H](CO[C@H]1O[C@H](CO)[C@H](O)[C@H](O)[C@H]1O)N=[N+]=[N-] [DB03-7]
in vitro activity at modulating cytokines (iNKT cells): show in vitro activity

CCCCCCCCCCCCCCC(O)C(O)C(COC1OC(CO)C(O)C(O)C1O)NC(=O)C=Cc1ccccc1 (centres unmarked) [YTCO3-42]
EC50 [2]: > 2.5 µM

CCCCCCCCCCCCCC[C@@H](O)[C@@H](O)[C@H](CO[C@H]1O[C@H](CO)[C@H](O)[C@H](O)[C@H]1O)NC(=O)Cc1ccc(OCC)cc1 [YTCO3-59]
IL-4/IFNγ ratio divided by this ratio for DB01-1 (value in parentheses) [1]: 309.4
ratio IL-4/IFNγ [1]: 8.045
Cytokine Response IFNγ [1]: 0.22 ng/mL
Cytokine Response IL-4 [1]: 1.77 ng/mL
EC50 [2]: 0.0001 µM
effectiveness of compound (NK T cells): Particularly effective

CCCCCCCCCCCCCC[C@@H](O)[C@@H](O)[C@H](CO[C@H]1O[C@H](CO)[C@H](O)[C@H](O)[C@H]1O)NC(=O)Cc1cccc2ccccc12 [YTCO3-56]
IL-4/IFNγ ratio divided by this ratio for DB01-1 (value in parentheses) [1]: 0.7
ratio IL-4/IFNγ [1]: 0.019
Cytokine Response IFNγ [1]: 11.79 ng/mL
Cytokine Response IL-4 [1]: 0.22 ng/mL
EC50 [2]: 0.0114 µM
effectiveness of compound (NK T cells): Particularly effective

CCCCCCCCCCCCCC[C@@H](O)[C@@H](O)[C@H](CO[C@H]1O[C@H](CO)[C@H](O)[C@H](O)[C@H]1O)NC(=O)C(c1ccccc1)C1CCCC1 (some centres unmarked) [YTCO3-50]
IL-4/IFNγ ratio divided by this ratio for DB01-1 (value in parentheses) [1]: 0.3
ratio IL-4/IFNγ [1]: 0.007
Cytokine Response IFNγ [1]: 9.47 ng/mL
Cytokine Response IL-4 [1]: 0.07 ng/mL
EC50 [2]: 0.0054 µM
effectiveness of compound (NK T cells): Particularly effective

CCCCCCCCCCCCCC[C@@H](O)[C@@H](O)[C@H](CO[C@H]1O[C@H](CO)[C@H](O)[C@H](O)[C@H]1O)NC(=O)Cc1cccc(C)c1 [YTCO3-52]
IL-4/IFNγ ratio divided by this ratio for DB01-1 (value in parentheses) [1]: 0.7
ratio IL-4/IFNγ [1]: 0.019
Cytokine Response IFNγ [1]: 10.25 ng/mL
Cytokine Response IL-4 [1]: 0.19 ng/mL
EC50 [2]: 0.017 µM

CCCCCCCCCCCCCC[C@@H](O)[C@@H](O)[C@H](CO[C@H]1O[C@H](CO)[C@H](O)[C@H](O)[C@H]1O)NC(=O)Cc1c(F)cccc1Cl [YTCO3-49]
IL-4/IFNγ ratio divided by this ratio for DB01-1 (value in parentheses) [1]: 1.1
ratio IL-4/IFNγ [1]: 0.028
Cytokine Response IFNγ [1]: 4.57 ng/mL
Cytokine Response IL-4 [1]: 0.13 ng/mL
EC50 [2]: 0.0571 µM

CCCCCCCCCCCCCCC(O)C(O)C(COC1OC(CO)C(O)C(O)C1O)NC(=O)Cc1ccccc1OC (centres unmarked) [YTCO3-43]
IL-4/IFNγ ratio divided by this ratio for DB01-1 (value in parentheses) [1]: 0.7
ratio IL-4/IFNγ [1]: 0.018
Cytokine Response IFNγ [1]: 19.50 ng/mL
Cytokine Response IL-4 [1]: 0.35 ng/mL
EC50 [2]: 0.0869 µM

CCCCCCCCCCCCCC[C@@H](O)[C@@H](O)[C@H](CO[C@H]1O[C@H](CO)[C@H](O)[C@H](O)[C@H]1O)NC(=O)Cc1cc(OC)ccc1OC [YTCO3-54]
IL-4/IFNγ ratio divided by this ratio for DB01-1 (value in parentheses) [1]: 0.4
ratio IL-4/IFNγ [1]: 0.011
Cytokine Response IFNγ [1]: 10.39 ng/mL
Cytokine Response IL-4 [1]: 0.11 ng/mL
EC50 [2]: 0.0172 µM

CCCCCCCCCCCCCC[C@@H](O)[C@@H](O)[C@H](CO[C@H]1O[C@H](CO)[C@H](O)[C@H](O)[C@H]1O)NC(=O)Cc1ccc(Br)cc1 [YTCO3-47]
IL-4/IFNγ ratio divided by this ratio for DB01-1 (value in parentheses) [1]: 0.4
ratio IL-4/IFNγ [1]: 0.011
Cytokine Response IFNγ [1]: 19.63 ng/mL
Cytokine Response IL-4 [1]: 0.21 ng/mL
EC50 [2]: 0.0075 µM
effectiveness of compound (NK T cells): Particularly effective

CCCCCCCCCCCCCC[C@@H](O)[C@@H](O)[C@H](CO[C@H]1O[C@H](CO)[C@H](O)[C@H](O)[C@H]1O)NC(=O)[C@H](Cc1ccccc1)NC(=O)OC(C)(C)C [YTCO3-57]
EC50 [2]: 2.19 µM

CCCCCCCCCCCCCC[C@@H](O)[C@@H](O)[C@H](CO[C@H]1O[C@H](CO)[C@H](O)[C@H](O)[C@H]1O)NC(=O)C(C)(c1ccccc1)c1ccccc1 [YTCO3-58]
IL-4/IFNγ ratio divided by this ratio for DB01-1 (value in parentheses) [1]: 0.9
ratio IL-4/IFNγ [1]: 0.024
Cytokine Response IFNγ [1]: 8.64 ng/mL
Cytokine Response IL-4 [1]: 0.21 ng/mL
EC50 [2]: 0.0518 µM

CCCCCCCCCCCCCCC(O)C(O)C(COC1OC(CO)C(O)C(O)C1O)NC(=O)CCCCCCCCCCC (centres unmarked) [YTC03-35]
effectiveness of compound (NK T cells): Particularly effective

CCCCCCCCCCCCCC[C@@H](O)[C@@H](O)[C@H](CO[C@H]1O[C@H](CO)[C@H](O)[C@H](O)[C@H]1O)NC(=O)C(OC)c1ccccc1 (some centres unmarked) [YTCO3-48]
IL-4/IFNγ ratio divided by this ratio for DB01-1 (value in parentheses) [1]: 0.6
ratio IL-4/IFNγ [1]: 0.016
Cytokine Response IFNγ [1]: 12.56 ng/mL
Cytokine Response IL-4 [1]: 0.20 ng/mL
EC50 [2]: 0.0869 µM

CCCCCCCCCCCCCC[C@@H](O)[C@@H](O)[C@H](CO[C@H]1O[C@H](CO)[C@H](O)[C@H](O)[C@H]1O)NC(=O)C(c1ccccc1)C(C)CC (some centres unmarked) [YTCO3-60]
IL-4/IFNγ ratio divided by this ratio for DB01-1 (value in parentheses) [1]: 0.8
ratio IL-4/IFNγ [1]: 0.022
Cytokine Response IFNγ [1]: 8.18 ng/mL
Cytokine Response IL-4 [1]: 0.18 ng/mL
EC50 [2]: 0.0109 µM
effectiveness of compound (NK T cells): Particularly effective

CCCCCCCCCCCCCCC(O)C(O)C(COC1OC(CO)C(O)C(O)C1O)NC(=O)Cc1ccccc1Cl (centres unmarked) [YTCO3-45]
IL-4/IFNγ ratio divided by this ratio for DB01-1 (value in parentheses) [1]: 1.6
ratio IL-4/IFNγ [1]: 0.041
Cytokine Response IFNγ [1]: 15.26 ng/mL
Cytokine Response IL-4 [1]: 0.63 ng/mL
EC50 [2]: 0.222 µM

CCCCCCCCCCCCCC[C@@H](O)[C@@H](O)[C@H](CO[C@H]1O[C@H](CO)[C@H](O)[C@H](O)[C@H]1O)NC(=O)C1(c2ccccc2)CCCC1 [YTCO3-46]
IL-4/IFNγ ratio divided by this ratio for DB01-1 (value in parentheses) [1]: 1.0
ratio IL-4/IFNγ [1]: 0.026
Cytokine Response IFNγ [1]: 8.52 ng/mL
Cytokine Response IL-4 [1]: 0.22 ng/mL
EC50 [2]: 0.0048 µM
effectiveness of compound (NK T cells): Particularly effective
